# Test results from a melting point compilation (Tetko et al.; mined from patent text by program, amines drawn as free bases though some values may be those of a salt).
row,Structure (SMILES),melting point [°C]
1,Cc1nc2n(C)ncn2c(=O)c1CCO,215
2,COC(=O)Cc1cc2c(c([N+](=O)[O-])c1)NCC2,113 to 115
3,O=C1C(Cl)=C(CC2CCCC(C(F)(F)F)C2)C(=O)c2ccccc21 (configuration not stated),104
4,c1ccc(-c2cccc3c2CCN(Cc2c[nH]c4ncccc24)C3)cc1,202 to 204
5,CC1(C)OCCC2CC(=O)N21 (configuration not stated),60 to 61
6,FC(F)(F)c1ccc(CN2CC3(COc4cc5c(cc43)CCO5)c3c(Br)cccc32)o1 (configuration not stated),182 to 184
7,CCCCCCCCOC1CCC(=O)N1 (configuration not stated),36 to 38
8,COc1ccc2c(c1)CCC1C2CCC2(C)C(=O)CC(C)(C(C)C)C12 (configuration not stated),113 to 115
9,C=CCNC(=O)C1=Cc2c1ccc(OC)c2OC,98 to 99
10,CC(C)c1cccc(S(=O)(=O)n2c(CCCC(=O)O)cc3nc(Cl)ccc32)c1,119
11,Cc1cn2c(=O)c(CCN3CCC(C(=O)c4ccc(F)cc4)CC3)cnc2n1Cc1ccccc1,157
12,CCCCc1cn(Cc2ccc(-c3ccccc3C(=O)O)cc2)c2c(c1=O)CC(C)CC2 (configuration not stated),255
13,CCCOc1ccc(S(=O)(=O)N2CCN(CC)CC2)cc1-c1nc2cc3ncn(Cc4ccccc4OC)c3cc2c(=O)[nH]1,180 to 182
14,CS(=O)c1cccc(-c2ncn(CCCN3CCOCC3)c2-c2ccncc2)c1 (configuration not stated),117 to 118
15,O=C(Oc1ccccc1)C1=C(O)CCn2c1nc1ccccc12,176 to 178
16,CC(=O)Oc1ccc(C(=O)Nc2ncc(S(C)(=O)=O)s2)cc1,280 to 281
17,COc1ccc(CSC(=S)N2Cc3[nH]c4ccccc4c3CC2C(=O)O)cc1 (configuration not stated),195 to 196
18,CCCC12CCC(=O)C=C1c1c(cc(CCC(=O)O)c(Cl)c1Cl)C2 (configuration not stated),201 to 203
19,Cc1cccc2c(=O)[nH]c(N3CCN(C)CC3)cc12,186 to 188
20,c1ccc2c(c1)[nH]c1cccc(OCC3CO3)c12 (configuration not stated),133
21,COC(=O)c1ccc(OCC(O)c2ccc3c(c2)C(C)(C)CCC3(C)C)cc1O (configuration not stated),133 to 134
22,CS(=O)(=O)c1ccc(-c2nn3c(-c4ccccc4)coc3c2-c2ccc(F)cc2)cc1,151 to 154
23,COC(=O)c1ccccc1/C=C/CO,75 to 80
24,C#CC(CC(=O)OC)c1ccc(OC)c(OC2CCCC2)c1 (racemic),41 to 42
25,O=C(O)CC1CCC(N2CCN(c3ccncc3)CC2)CC1 (configuration not stated),225 to 227
26,Cc1c(NC(=O)c2cccnc2NCc2ccc(=O)[nH]c2)cccc1C(F)(F)F,196 to 201

row,Structure (SMILES),melting point [°C]
1,c1ccc(-n2nnnc2OCC2CO2)cc1 (configuration not stated),77 to 81
2,CN1CC=C(c2c[nH]c3ccc(NC(=O)c4ccc(Cl)cc4)cc23)CC1,224 to 226
3,CCCCCC(=O)C=Cc1cc(O)c2c(c1)OC(C)(C)C1CC=C(C)CC21 (configuration not stated),119
4,NC(=O)C(=O)Nc1nc(-c2cc3ccccc3oc2=O)cs1,297 to 300
5,CC(=O)c1cccc(NC(=O)NCCN(CCNC(=O)Nc2cccc(C(C)=O)c2)CCNC(=O)Nc2cccc(C(C)=O)c2)c1,193
6,O=C(Nc1ccc(I)cc1)OCc1ccccc1,132 to 134
7,Cc1onc(-c2ccccc2)c1-c1[nH]c2ccccc2c1CCN(C)C,142 to 144
8,Cn1cc(-c2ccc(Cl)c(C(F)(F)F)c2)c(=O)c(-c2cccs2)c1,166 to 168
9,CCCCc1cnc(-c2ccc(N)cc2)nc1,154 to 156
10,COc1nccc2c1ccn2-c1ccc(C(F)(F)F)cc1Cl,112 to 115
11,Cc1nc(NCCCO)c([N+](=O)[O-])c(N2CCc3ccccc3CC2)n1,104 to 108
12,O=C(O)Cc1ccc(-n2cc(Br)cn2)cc1,187
13,COC(=O)c1cc(Br)cc(Cl)c1NC(C)=O,152 to 153
14,COc1nc(C)cnc1NS(=O)(=O)c1cccnc1-c1ccc(CC(C)CO)cc1 (configuration not stated),118 to 119
15,CCOc1cc(Cc2ccc(Cl)cc2Cl)nc(-c2ccc3c(n2)CCCC3)n1,98 to 100
16,CCOc1cc(OC)c(/C=C/C(=O)c2ccc(C(=O)O)cc2)cc1-c1cccs1,210 to 212
17,O=C(Nc1ccc2c(c1)nc1n2CCC1)c1cc2cc(C(F)(F)F)cnc2n1Cc1ccccc1,268 to 270
18,CC(N)CC(=O)Nc1c(OCC(F)(F)F)cccc1-c1ccccn1 (configuration not stated),135 to 137
19,Cc1ccc(S(=O)(=O)OCC2Cc3c(C(F)(F)F)ccc(Cl)c3O2)cc1 (configuration not stated),89 to 92
20,O=S1(=O)NCN(C2CC2)c2ccc(Cl)cc21,159 to 161
21,O=CN1CCN(S(=O)(=O)CCCOc2ccc3c(c2)CC2NC(=O)NC2=N3)CC1 (configuration not stated),285 to 288
22,CCCCc1nn(-c2cc(NC(C)=O)ccc2Cl)c(=O)n1Cc1ccc(-c2cc(CCC)ccc2S(=O)(=O)NC(=O)c2ccccc2F)cc1F,148 to 150
23,CSc1ccc(-c2nn(Cc3ccc(F)cc3)c(=O)cc2-c2ccc(F)cc2)cc1,156
24,CC(=O)Nc1ccn(C2CCC(CO)O2)c(=O)n1 (configuration not stated),143 to 145
25,O=Cc1ccc(NC(=O)c2cc(F)cc(N3CCOCC3)c2)c2ccccc12,204 to 205
26,CCOC(=O)C1=C(C)NC(C)=C(C(=O)OC)C1c1ccc([N+](=O)[O-])cc1 (configuration not stated),150

row,Structure (SMILES),melting point [°C]
1,COc1ccc(CC(=O)NC(NC(=NC#N)Nc2cccc3ncccc23)C(C)(C)C)cc1OC (configuration not stated),128 to 129
2,C=CCNc1nc(NCCCCC)c2scc(C)c2n1,64 to 65
3,O=C(CCc1ccccc1)c1ccc(OCCO)cc1,41 to 43
4,C(=Cc1nc2ccccc2o1)c1ccccc1,78 to 79
5,N#CCCNC(=O)c1cccc(-c2cccc3nn(Cc4cccc(C(F)(F)F)c4)cc23)c1,187 to 188
6,CC(C)(C)OC(=O)NC1Cc2ccc(NC(=O)c3ccccc3-c3ccc(C(F)(F)F)cc3)cc2C1 (configuration not stated),198 to 201
7,CCOP(=O)(OCC)C(c1ccccc1)N(CCCl)C(N)=O (configuration not stated),82
8,CC(C)(C)OC(=O)N1CCN(C2CC2)CC1,65 to 67
9,CCOC(=O)N1CCN(c2ccc(C(=O)CCc3ccc(NC4=NCCN4)cc3)cc2)CC1,150 to 151
10,O=C1c2ccccc2C(=O)N1Cc1ccncc1,164 to 165
11,Cc1nc2nn(-c3ccccc3)c(N)c2c(=O)[nH]1,279 to 281
12,CCNc1nc(C(C)C)nc(Cl)c1[N+](=O)[O-],50
13,CC(C)(O)Cc1ccc(N)cc1,107 to 108
14,COCc1cc2c(s1)CCCc1cc(=O)n(-c3ccc(OC)cc3)nc1-2,115 to 117
15,C=C1NC(=O)N(CCCC)C1=O,73
16,COC(=O)c1cc(OC)c(OCCCN)cc1[N+](=O)[O-],101 to 103
17,C#Cc1ccc(-c2c(C)nnc(OC)c2-c2c(F)cc(OC)cc2F)cc1,192 to 193
18,Cc1cccc(-c2nc(N)sc2-c2ccnc(-c3ccc(CN4CCOCC4)cc3)c2)n1,190 to 192
19,CC(CN1CCCC1)N1c2ccccc2Sc2ccc(C(=O)NCc3ccccc3[N+](=O)[O-])cc21 (racemic),95
20,CCCCC1NC(C(=O)OC)Cc2c1[nH]c1ccccc21 (configuration not stated),102 to 103
21,Cn1cc(CC(NC(=O)CCS)C(=O)O)c2ccccc21 (racemic),115 to 117
22,COc1ccc(Cc2ncc(C(=O)O)c3cc(OC)c(OC)cc23)cc1OC,235 to 236
23,COC1(c2ccc(Sc3ccc4ccccc4c3)s2)CCOCC1,70
24,CC(C)(C)C(=O)Nc1onc2c1CCC2,113
25,CCOC(=O)CC(=O)Cc1ccc(OC)c([N+](=O)[O-])c1,87 to 88
26,Nc1sc2c(c1C(=O)c1ccc(Br)s1)CCC2,154 to 156

row,Structure (SMILES),melting point [°C]
1,O=C(O)Cc1ccc(-n2cc(Cl)cn2)c(Cl)c1,132 to 133
2,COC1=CC(=NC2CCCCC2)c2ccccc2C1=O,145 to 147
3,Cc1cccc(-c2n[nH]cc2-c2ccnc(-c3ccc(-n4ccnc4C)cc3)c2)n1,128
4,NC1=C2C=NN=C2N(c2ccc([N+](=O)[O-])cc2)CN1c1ccccc1,348 to 349
5,COc1ccc2c(c1)C(=NO)c1c-2cnc2ccccc12,270 to 271
6,COc1ccc(CCN(C(C)=O)c2c(C)c(C)c3c(c2C)C(c2ccc(C(C)C)cc2)C(C)(C)O3)cc1 (configuration not stated),134 to 136
7,CCCCN(Cc1c(O)ccc2ccccc12)Cc1c(O)ccc2ccccc12,130 to 131
8,O=C1CCC(N2C(=O)c3ccc(CNC(=O)c4ccc(Cl)cc4)cc3C2=O)C(=O)N1 (configuration not stated),178 to 180
9,COC(=O)c1ncoc1-c1cccs1,64 to 66
10,Nc1cc(Cl)cc2c(Cl)ccnc12,132 to 134
11,CCn1nnn(-c2cc(OCOC)c(Cl)cc2Cl)c1=O,112 to 113
12,COc1ccc2nc(-c3cccc4ccccc34)[nH]c(=O)c2c1,174 to 175
13,CC(O)=C(C#N)C(=O)Nc1cccc(S(C)(=O)=O)c1,213 to 214
14,CCCCC(C(=O)N1CCCCC1)c1ccc(C(=O)O)cc1 (configuration not stated),142
15,Cn1nc2ccc(OCCCN3CCC(OC(c4ccccc4)c4ccccc4)CC3)nn2c1=O,139 to 140
16,C=CCSc1ccc(Oc2ccc(C)cc2)nn1,115 to 117
17,CC(C)n1c2c(c(-c3ccccc3)nc1=O)CCCCCCCCCC2,173 to 176
18,Cc1c(C)c2c(c(C)c1N)C(c1cccnc1)C(C)(C)O2 (configuration not stated),130 to 131
19,CC(C)ON=Cc1nn(-c2c(Cl)cc(C(F)(F)F)cc2Cl)c(N)c1S(C)=O (configuration not stated),128 to 130
20,COC(=O)c1c(Cc2ccc(C(=O)CO)cc2)c(=O)c2ccc(C)nc2n1-c1ccccc1,190 to 193
21,Clc1ccc2sc(=NCCc3c[nH]c4ccccc34)sc2c1,145 to 147
22,Cc1cc(NC(=O)COc2ccccc2)cc(C)c1S(=O)(=O)C[N+](=O)[O-],166 to 167
23,Oc1ccc(C2COc3cc(O)cc(O)c3C2)cc1 (configuration not stated),206 to 208
24,Cc1nc2c(cc1C(=O)NC(=N)N)CCCCC2COS(=O)(=O)O (configuration not stated),231 to 233
